Reference: PubChem BioAssay AID504563 (Southern Research Specialized Biocontainment Screening …, 2011)

Test system: HIV-1 CXCR4-tropic in human PBMC, supernatant RT activity
Assay: inhibitors of CXCR4-tropic HIV-1 replication in PBMCs, dose response, cell-based, human PBMC, set 2 (AID 504563)

| SMILES | IC50 |
| --- | --- |
| Cc1c2c(=O)n(-c3nc4ccccc4s3)nc-2cc(O)n1CCC(C)C | 5.25 µM |
| Cc1c2c(=O)n(-c3nc4ccccc4s3)nc-2cc(O)n1Cc1ccccc1 | 3.21 µM |
| Cc1c2c(=O)n(-c3nc4ccccc4s3)nc-2cc(O)n1C1CC1 | 0.76 µM |
| COc1ccccc1Cn1c(O)cc2nn(-c3nc4ccccc4s3)c(=O)c-2c1C | 5.55 µM |
| Cc1c2c(=O)n(-c3nc4ccccc4s3)nc-2cc(O)n1Cc1ccncc1 | 1.99 µM |
| COc1ccc(Cn2c(O)cc3nn(-c4nc5ccccc5s4)c(=O)c-3c2C)cc1 | 2.86 µM |
| Cc1c2c(=O)n(-c3nc4ccccc4s3)nc-2cc(O)n1Cc1ccccc1Cl | 7.26 µM |
| Cc1c2c(=O)n(-c3nc4ccccc4s3)nc-2cc(O)n1CCc1cccs1 | 3.77 µM |
| Cc1c2c(=O)n(-c3nc4ccccc4s3)nc-2cc(O)n1Cc1cccnc1 | 1.51 µM |
| Cc1c2c(=O)n(-c3nc4ccccc4s3)nc-2cc(O)n1Cc1cccs1 | 1.83 µM |
| COc1ccc(CCn2c(O)cc3nn(-c4nc5ccccc5s4)c(=O)c-3c2C)cc1 | 12.6 µM |
| Cc1c2c(=O)n(-c3nc4ccccc4s3)nc-2cc(O)n1CCc1ccc(O)cc1 | 1.85 µM |
| Cc1c2c(=O)n(-c3nc4ccccc4s3)nc-2cc(O)n1Cc1ccc(F)cc1 | 3.98 µM |
